Data: US12304890B2, “R-type pyridyloxycarboxylic acid, salt and ester derivative thereof, and preparation method therefor, and herbicidal composition and application thereof” (Qingdao Kingagroot Chemical Compound Co., Ltd., priority 2018, dated 2025)

How the values were obtained:
Format in all cases: in vivo
Monochoria vaginalis = assay: Weed control effect evaluation in rice field; conditions: paddy pot, 0.5 leaf stage, 14 days, weed resistant to pyrazosulfuron-ethyl and penoxsulam
Protocol: Rice field soil was loaded into a 1/1,000,000 ha pot. The seeds of Monochoria vaginalis were sowed and gently covered with soil, then left to stand still in greenhouse in the state of 0.5-1 cm of water storage. It was kept at 3-4 cm of water storage thereafter. The weeds were treated by dripping the WP or SC water diluents prepared according to the common preparation method of the compounds of the present invention with pipette homogeneously to achieve specified effective amount when Monochoria vaginalis reached 0.5 leaf stage.
(§1) The fertility condition of Monochoria vaginalis 14 days and rice 21 days after the treatment of the compound of the invention with the naked eye.

rice = assay: Post-emergence test experiment, rice (crop selectivity); conditions: 3 weeks
Protocol: The above described growth inhibition rate is fresh weight inhibition rate.
Post-emergence test experiment: Monocotyledonous and dicotyledonous weed seeds and main crop seeds (i. e. wheat, corn, rice, soybean, cotton, oilseed, millet and sorghum.) were put into a plastic pot loaded with soil. Then covered with 0.5-2 cm soil, the seeds were allowed to grow in good greenhouse environment. The test plants were treated at 2-3 leaf stage 2 weeks after sowing. The test compounds of the invention were dissolved with acetone respectively, then added with tween-80, and using 1.5 liters per hectare of an emulsible concentrate of methyl oleate as a synergist, and diluted by certain amount of water to certain concentration. The solution was sprayed to the plants with a sprayer. Then the plants were cultured for 3 weeks in the greenhouse, and the experiment result of weed controlling effect was listed in tables 4-5.

[1] = system: Monocotyledonous and dicotyledonous weed seeds and main crop seeds; assay: Post-emergence test experiment, other weeds and crops (Table 4, 1000 g a.i./ha); conditions: 3 weeks in greenhouse, fresh weight inhibition
How it was run: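 Growth inhibition is scored on fresh weight. Spray solutions were made in acetone with tween-80, diluted in water, plus 1.5 L/ha methyl oleate emulsible concentrate. Plants from greenhouse-grown weed and crop seeds were treated post-emergence at 2-3 leaves, 2 weeks after sowing.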

rice (japonica rice) = assay: Transplanted rice safety evaluation; conditions: transplanted 3-leaf japonica rice, 1000 g a.i./ha, 21 days after treatment
Protocol: In addition, the rice field soil that loaded into the 1/1,000,000 ha pot was leveled to keep water storage at 3-4 cm depth. The 3-leaf stage rice (japonica rice) was transplanted at 3 cm of transplanting depth the next day. The compound of the present invention was treated by the same way after 5 days of transplantation.
as §1

Echinochloa crusgalli = assay: Post-emergence test experiment, Echinochloa crusgalli; conditions: for Activity level (growth inhibition rate), Echinochloa crusgalli: 1000 g a.i./ha, 3 weeks in greenhouse, fresh weight inhibition; for inhibition at 200 g/ha: Echinochloa crus-galli, 504 h, read-out: Echinochloa crusgalli, activity level (growth inhibition rate); for inhibition at 200 g/ha / Echinochloa crusgalli, activity level (growth inhibition rate): 3 weeks
How it was run: (§2)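 Greenhouse post-emergence spray at 2-3 leaf stage (2 wk after sowing); acetone/tween-80 formulation, methyl oleate EC synergist 1.5 L/ha, water-diluted. Plants held 3 wk, then fresh weight inhibition rate read.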

Digitaria sanguinalis = assay: Post-emergence test experiment, Digitaria sanguinalis; conditions: for Activity level (growth inhibition rate), Digitaria sanguinalis: 1000 g a.i./ha, 3 weeks in greenhouse, fresh weight inhibition; for inhibition at 200 g/ha: Digitaria sanguinalis, 504 h, read-out: Digitaria sanguinalis, activity level (growth inhibition rate); for inhibition at 200 g/ha / Digitaria sanguinalis, activity level (growth inhibition rate): 3 weeks
How it was run: as §2

[2] = system: Semen Euphorbiae Lathyridis; assay: Post-emergence test experiment, Semen Euphorbiae Lathyridis; conditions: 3 weeks; for inhibition at 200 g/ha: 504 h, read-out: Semen Euphorbiae Lathyridis, activity level (growth inhibition rate)
How it was run: as §2

[3] = 200 g a.i./ha, weed resistant to ALS inhibitor and ACCe herbicides
[4] = 200 g a.i./ha, weed resistant to cyhalofop-butyl

Row | SMILES | Monochoria Vaginalis, activity level 0-5 (Monochoria vaginalis; 1000 g a.i./ha) | rice, activity level (growth inhibition rate) (rice; 200 g a.i./ha) | Activity level (growth inhibition rate), Abutilon theophrasti Medic. [1] | Activity level (growth inhibition rate), Galium aparine [1] | Activity level (growth inhibition rate), Monochoria Vaginalis [1] | rice, safety level 0-5 (rice (japonica rice)) | Activity level (growth inhibition rate), Echinochloa crusgalli (Echinochloa crusgalli) | inhibition at 200 g/ha (Echinochloa crusgalli; [3]) [%] | Activity level (growth inhibition rate), Digitaria sanguinalis (Digitaria sanguinalis) | inhibition at 200 g/ha (Digitaria sanguinalis; [4]) [%] | inhibition at 200 g/ha [2, 4] [%] | Echinochloa crusgalli, activity level (growth inhibition rate) (Echinochloa crusgalli; [3]) | Digitaria sanguinalis, activity level (growth inhibition rate) (Digitaria sanguinalis; [4]) | Semen Euphorbiae Lathyridis, activity level (growth inhibition rate) [2, 4] | rice, activity level (growth inhibition rate) (rice; 400 g a.i./ha) | Echinochloa crusgalli, activity level (growth inhibition rate) (Echinochloa crusgalli; 400 g a.i./ha, resistant weed) | Digitaria sanguinalis, activity level (growth inhibition rate) (Digitaria sanguinalis; 400 g a.i./ha, resistant weed) | Semen Euphorbiae Lathyridis, activity level (growth inhibition rate) ([2]; 400 g a.i./ha, resistant weed) | Monochoria Vaginalis, activity level 0-5 (Monochoria vaginalis; 50 g a.i./ha)
1 | COC(=O)[C@@H](C)Oc1nc(F)c(Cl)c(N)c1Cl [Compound 2-69] | 5 (Level 5: the growth inhibition rate is greater than 85%) | 0 (Level 0: the growth inhibition rate is less than 5%) | 5 (Level 5: the growth inhibition rate is greater than 85%) | 5 (Level 5: the growth inhibition rate is greater than 85%) | 5 (Level 5: the growth inhibition rate is greater than 85%) | 0 (Level 0: the growth inhibition rate is less than 5%) | 5 (Level 5: the growth inhibition rate is greater than 85%) | > 85 | 5 (Level 5: the growth inhibition rate is greater than 85%) | > 85 | > 85 | – | – | – | – | – | – | – | –
2 | CSC(=O)[C@@H](C)Oc1nc(F)c(Cl)c(N)c1Cl [Compound 2-70] | 5 (Level 5: the growth inhibition rate is greater than 85%) | 0 (Level 0: the growth inhibition rate is less than 5%) | 5 (Level 5: the growth inhibition rate is greater than 85%) | 5 (Level 5: the growth inhibition rate is greater than 85%) | 5 (Level 5: the growth inhibition rate is greater than 85%) | 0 (Level 0: the growth inhibition rate is less than 5%) | 5 (Level 5: the growth inhibition rate is greater than 85%) | – | 5 (Level 5: the growth inhibition rate is greater than 85%) | – | – | 5 (Level 5: the growth inhibition rate is greater than 85%) | 5 (Level 5: the growth inhibition rate is greater than 85%) | 5 (Level 5: the growth inhibition rate is greater than 85%) | – | – | – | – | –
3 | CCOC(=O)[C@@H](C)Oc1nc(F)c(Cl)c(N)c1Cl [Compound 2-71] | 5 (Level 5: the growth inhibition rate is greater than 85%) | 0 (Level 0: the growth inhibition rate is less than 5%) | 5 (Level 5: the growth inhibition rate is greater than 85%) | 5 (Level 5: the growth inhibition rate is greater than 85%) | 5 (Level 5: the growth inhibition rate is greater than 85%) | 0 (Level 0: the growth inhibition rate is less than 5%) | 5 (Level 5: the growth inhibition rate is greater than 85%) | – | 5 (Level 5: the growth inhibition rate is greater than 85%) | – | – | 5 (Level 5: the growth inhibition rate is greater than 85%) | 5 (Level 5: the growth inhibition rate is greater than 85%) | 5 (Level 5: the growth inhibition rate is greater than 85%) | 2 (Level 2: the growth inhibition rate is equal to or greater than 20% and less than 40%) | 5 (Level 5: the growth inhibition rate is greater than 85%) | 5 (Level 5: the growth inhibition rate is greater than 85%) | 5 (Level 5: the growth inhibition rate is greater than 85%) | –
4 | CCOC(=O)COC(=O)C(C)Oc1nc(F)c(Cl)c(N)c1Cl (centres unmarked) [Compound 2-294] | 5 (Level 5: the growth inhibition rate is greater than 85%) | 0 (Level 0: the growth inhibition rate is less than 5%) | 5 (Level 5: the growth inhibition rate is greater than 85%) | 5 (Level 5: the growth inhibition rate is greater than 85%) | 5 (Level 5: the growth inhibition rate is greater than 85%) | 0 (Level 0: the growth inhibition rate is less than 5%) | 5 (Level 5: the growth inhibition rate is greater than 85%) | – | 5 (Level 5: the growth inhibition rate is greater than 85%) | – | – | 5 (Level 5: the growth inhibition rate is greater than 85%) | 5 (Level 5: the growth inhibition rate is greater than 85%) | 5 (Level 5: the growth inhibition rate is greater than 85%) | – | – | – | – | –
5 | CC(Oc1nc(F)c(Cl)c(N)c1Cl)C(=O)OCc1ccccc1 (centres unmarked) [Compound 2-300] | 5 (Level 5: the growth inhibition rate is greater than 85%) | 0 (Level 0: the growth inhibition rate is less than 5%) | 5 (Level 5: the growth inhibition rate is greater than 85%) | 5 (Level 5: the growth inhibition rate is greater than 85%) | 5 (Level 5: the growth inhibition rate is greater than 85%) | 0 (Level 0: the growth inhibition rate is less than 5%) | 5 (Level 5: the growth inhibition rate is greater than 85%) | – | 5 (Level 5: the growth inhibition rate is greater than 85%) | – | – | 5 (Level 5: the growth inhibition rate is greater than 85%) | 5 (Level 5: the growth inhibition rate is greater than 85%) | 5 (Level 5: the growth inhibition rate is greater than 85%) | – | – | – | – | –
6 | C[C@@H](Oc1nc(F)c(Cl)c(N)c1Cl)C(=O)SCc1ccc(Cl)cc1 [Compound 2-319] | 5 (Level 5: the growth inhibition rate is greater than 85%) | 0 (Level 0: the growth inhibition rate is less than 5%) | 5 (Level 5: the growth inhibition rate is greater than 85%) | 5 (Level 5: the growth inhibition rate is greater than 85%) | 5 (Level 5: the growth inhibition rate is greater than 85%) | 0 (Level 0: the growth inhibition rate is less than 5%) | 5 (Level 5: the growth inhibition rate is greater than 85%) | > 85 | 5 (Level 5: the growth inhibition rate is greater than 85%) | > 85 | > 85 | – | – | – | – | – | – | – | –
7 | COc1cnc(OC)n2nc(NS(=O)(=O)c3c(OCC(F)F)cccc3C(F)(F)F)nc12 [penoxsulam, reference compound] | – | – | – | – | – | – | – | – | – | – | – | – | – | – | – | – | – | – | 1 (Level 1: the growth inhibition rate is equal to or greater than 5% and less than 20%)
